Test results reported in US20250147039A1, “Compounds for complexation of rare earth elements and/or s-, p-, d- block metals, their coordination compounds, peptide conjugates, method of their preparation and use thereof” (USTAV ORGANICKE CHEMIE A BIOCHEMIE AV CR V.V.I., priority 2021, published 2025).

Assays:
[1] = Formation of 1,5-cz-[M(Lig)] from Lig and M^III ions (metal dependent click-zip) (Charts 4, 5); assay type: physicochemical; conditions: MOPS/NaOH buffer pH 7.0, TD728, TD827 in 50% i-PrOH; for conversion to 1,5-cz-[M(Lig)], Y^III: TD714 sum of two diastereoisomers
[2] = Formation of 1,5-cz-[Ln(Lig)] from Lig and Ln^III ions (metal dependent click-zip), MOPS/NaOH buffer pH 7.0, analytical HPLC (Charts 1, 2)
[3] = after 1 week at 80° C., 50% i-PrOH in aq. MOPS/NaOH Buffer pH 7.0
[4] = after 1 hour at 80° C., 50% i-PrOH in aq. MOPS/NaOH Buffer pH 7.0
[5] = after 1 week at 80° C., MOPS/NaOH buffer pH 7.0
[6] = after 1 hour at 80° C., MOPS/NaOH buffer pH 7.0

Q: What does the source list for `C#Cc1cccc(CN2CCN(CC(=O)O)CCN(Cc3cc(C#C[Si](C(C)C)(C(C)C)C(C)C)cc(CN=[N+]=[N-])n3)CCN(CC(=O)O)CC2)n1` [TD827]?
A: conversion to 1,5-cz-[M(Lig)], Sc^III ([1]; 1 week at 80° C.): 55%; conversion to 1,5-cz-[M(Lig)], Y^III ([1]; 1 week at 80° C.): 96%; conversion to 1,5-cz-[M(Lig)], Sc^III ([1]; 1 hour at 80° C.): 2%; conversion to 1,5-cz-[M(Lig)], Y^III ([1]; 1 hour at 80° C.): 42%; conversion to 1,5-cz-[Ln(Lig)], Ce^III [2, 3]: 22%; conversion to 1,5-cz-[Ln(Lig)], Ce^III [2, 4]: 2%; conversion to 1,5-cz-[Ln(Lig)], Dy^III [2, 3]: 96%; conversion to 1,5-cz-[Ln(Lig)], Dy^III [2, 4]: 30%; conversion to 1,5-cz-[Ln(Lig)], Er^III [2, 3]: 96%; conversion to 1,5-cz-[Ln(Lig)], Er^III [2, 4]: 56%; conversion to 1,5-cz-[Ln(Lig)], Eu^III [2, 3]: 92%; conversion to 1,5-cz-[Ln(Lig)], Eu^III [2, 4]: 9%; conversion to 1,5-cz-[Ln(Lig)], Gd^III [2, 3]: 93%; conversion to 1,5-cz-[Ln(Lig)], Gd^III [2, 4]: 11%; conversion to 1,5-cz-[Ln(Lig)], Ho^III [2, 3]: 96%; conversion to 1,5-cz-[Ln(Lig)], Ho^III [2, 4]: 43%; conversion to 1,5-cz-[Ln(Lig)], La^III [2, 3]: 46%; conversion to 1,5-cz-[Ln(Lig)], La^III [2, 4]: 1%; conversion to 1,5-cz-[Ln(Lig)], Lu^III [2, 3]: 97%; conversion to 1,5-cz-[Ln(Lig)], Lu^III [2, 4]: 77%; conversion to 1,5-cz-[Ln(Lig)], Nd^III [2, 3]: 84%; conversion to 1,5-cz-[Ln(Lig)], Nd^III [2, 4]: 3%; conversion to 1,5-cz-[Ln(Lig)], Pr^III [2, 3]: 79%; conversion to 1,5-cz-[Ln(Lig)], Pr^III [2, 4]: 2%; conversion to 1,5-cz-[Ln(Lig)], Sm^III [2, 3]: 91%; conversion to 1,5-cz-[Ln(Lig)], Sm^III [2, 4]: 7%; conversion to 1,5-cz-[Ln(Lig)], Tb^III [2, 3]: 95%; conversion to 1,5-cz-[Ln(Lig)], Tb^III [2, 4]: 21%; conversion to 1,5-cz-[Ln(Lig)], Tm^III [2, 3]: 97%; conversion to 1,5-cz-[Ln(Lig)], Tm^III [2, 4]: 68%; conversion to 1,5-cz-[Ln(Lig)], Yb^III [2, 3]: 97%; conversion to 1,5-cz-[Ln(Lig)], Yb^III [2, 4]: 75%

Q: Which “conversion to 1,5-cz-[M(Lig)], Sc^III” value ([1]; 1 week at 80° C.) does the source give for `[N-]=[N+]=NCc1cccc(CN2CCN(CC(=O)O)CCN(Cc3cccc(C#CC4CC4)n3)CCN(CC(=O)O)CC2)n1` [TD943] here?
A: 5%

Q: What about the “conversion to 1,5-cz-[M(Lig)], Y^III” value ([1]; 1 week at 80° C.) of the same compound?
A: 74%

Q: What about the “conversion to 1,5-cz-[M(Lig)], Sc^III” value ([1]; 1 hour at 80° C.) of the same compound?
A: 0%

Q: What about the “conversion to 1,5-cz-[M(Lig)], Y^III” value ([1]; 1 hour at 80° C.) of the same compound?
A: 1%

Q: And the “conversion to 1,5-cz-[Ln(Lig)], Ce^III” value [2, 5]?
A: 4%

Q: What about the “conversion to 1,5-cz-[Ln(Lig)], Ce^III” value [2, 6] of the same compound?
A: 0%

Q: What about the “conversion to 1,5-cz-[Ln(Lig)], Dy^III” value [2, 5] of the same compound?
A: 65%

Q: And the “conversion to 1,5-cz-[Ln(Lig)], Dy^III” value [2, 6]?
A: 1%

Q: And the “conversion to 1,5-cz-[Ln(Lig)], Er^III” value [2, 5]?
A: 88%

Q: What about the “conversion to 1,5-cz-[Ln(Lig)], Er^III” value [2, 6] of the same compound?
A: 2%

Q: And the “conversion to 1,5-cz-[Ln(Lig)], Eu^III” value [2, 5]?
A: 36%

Q: And the “conversion to 1,5-cz-[Ln(Lig)], Eu^III” value [2, 6]?
A: 0%

Q: What about the “conversion to 1,5-cz-[Ln(Lig)], Gd^III” value [2, 5] of the same compound?
A: 40%

Q: What about the “conversion to 1,5-cz-[Ln(Lig)], Gd^III” value [2, 6] of the same compound?
A: 0%

Q: And the “conversion to 1,5-cz-[Ln(Lig)], Ho^III” value [2, 5]?
A: 77%

Q: And the “conversion to 1,5-cz-[Ln(Lig)], Ho^III” value [2, 6]?
A: 2%

Q: And the “conversion to 1,5-cz-[Ln(Lig)], La^III” value [2, 5]?
A: 5%

Q: And the “conversion to 1,5-cz-[Ln(Lig)], La^III” value [2, 6]?
A: 0%

Q: And the “conversion to 1,5-cz-[Ln(Lig)], Lu^III” value [2, 5]?
A: 97%

Q: What about the “conversion to 1,5-cz-[Ln(Lig)], Lu^III” value [2, 6] of the same compound?
A: 5%

Q: What about the “conversion to 1,5-cz-[Ln(Lig)], Nd^III” value [2, 5] of the same compound?
A: 16%

Q: What about the “conversion to 1,5-cz-[Ln(Lig)], Nd^III” value [2, 6] of the same compound?
A: 0%

Q: And the “conversion to 1,5-cz-[Ln(Lig)], Pr^III” value [2, 5]?
A: 10%

Q: What about the “conversion to 1,5-cz-[Ln(Lig)], Pr^III” value [2, 6] of the same compound?
A: 0%

Q: What about the “conversion to 1,5-cz-[Ln(Lig)], Sm^III” value [2, 5] of the same compound?
A: 29%

Q: What about the “conversion to 1,5-cz-[Ln(Lig)], Sm^III” value [2, 6] of the same compound?
A: 0%

Q: And the “conversion to 1,5-cz-[Ln(Lig)], Tb^III” value [2, 5]?
A: 56%

Q: What about the “conversion to 1,5-cz-[Ln(Lig)], Tb^III” value [2, 6] of the same compound?
A: 1%

Q: What about the “conversion to 1,5-cz-[Ln(Lig)], Tm^III” value [2, 5] of the same compound?
A: 94%

Q: And the “conversion to 1,5-cz-[Ln(Lig)], Tm^III” value [2, 6]?
A: 3%

Q: What about the “conversion to 1,5-cz-[Ln(Lig)], Yb^III” value [2, 5] of the same compound?
A: 97%

Q: And the “conversion to 1,5-cz-[Ln(Lig)], Yb^III” value [2, 6]?
A: 3%
